ChEMBL document CHEMBL1147199, “Exploration of the correlation between the structure, hemolytic activity, and cytotoxicity of steroid saponins” (Bioorg Med Chem, 2007)

Assay: Cytotoxicity against human erythrocytes assessed as hemolytic activity after 60 mins
Assay type: cell-based, Erythrocyte
Conditions: read-out: HD50

Compound | HC50 at 1 h
C[C@@H]1CC[C@@]2(OC1)O[C@H]1C[C@H]3[C@@H]4CC=C5C[C@@H](O[C@@H]6O[C@H](CNC(=O)c7ccccc7I)[C@@H](O[C@H]7O[C@H](C)[C@@H](O)[C@H](O)[C@@H]7O)[C@H](O)[C@H]6O[C@H]6O[C@H](C)[C@@H](O)[C@H](O)[C@@H]6O)CC[C@]5(C)[C@H]4CC[C@]3(C)[C@H]1[C@@H]2C | 7.4 µM
CCCCCCCCCCCCCC(=O)NC[C@H]1O[C@@H](O[C@H]2CC[C@@]3(C)C(=CC[C@H]4[C@@H]5C[C@@H]6O[C@]7(CC[C@@H](C)CO7)[C@@H](C)[C@@H]6[C@@]5(C)CC[C@@H]43)C2)[C@H](O[C@H]2O[C@H](C)[C@@H](O)[C@H](O)[C@@H]2O)[C@@H](O)[C@@H]1O[C@H]1O[C@H](C)[C@@H](O)[C@H](O)[C@@H]1O | > 50 µg/mL
CC(=O)NC[C@H]1O[C@@H](O[C@H]2CC[C@@]3(C)C(=CC[C@H]4[C@@H]5C[C@@H]6O[C@]7(CC[C@@H](C)CO7)[C@@H](C)[C@@H]6[C@@]5(C)CC[C@@H]43)C2)[C@H](O[C@H]2O[C@H](C)[C@@H](O)[C@H](O)[C@@H]2O)[C@@H](O)[C@@H]1O[C@H]1O[C@H](C)[C@@H](O)[C@H](O)[C@@H]1O | > 50 µg/mL
C[C@@H]1CC[C@@]2(OC1)O[C@H]1C[C@H]3[C@@H]4CC=C5C[C@@H](O[C@@H]6O[C@H](CO)[C@@H](O[C@H]7O[C@H](C)[C@@H](OCCNC(=O)c8ccccc8I)[C@H](O)[C@@H]7O)[C@H](O)[C@H]6O[C@H]6O[C@H](C)[C@@H](O)[C@H](O)[C@@H]6O)CC[C@]5(C)[C@H]4CC[C@]3(C)[C@H]1[C@@H]2C | 1.7 µM
C[C@@H]1CC[C@@]2(OC1)O[C@H]1C[C@H]3[C@@H]4CC=C5C[C@@H](O[C@@H]6O[C@H](CO)[C@@H](O[C@H]7O[C@H](CO)[C@@H](O)[C@@H]7O)[C@H](O)[C@H]6O[C@H]6O[C@H](C)[C@@H](O)[C@H](O)[C@@H]6O)CC[C@]5(C)[C@H]4CC[C@]3(C)[C@H]1[C@@H]2C [POLYPHILLIN D] | 3.9 µM
CC(=O)O[C@H]1[C@H](O)[C@H](O)[C@@H](O[C@H]2[C@H](O)[C@@H](O[C@H]3O[C@H](C)[C@@H](O)[C@H](O)[C@@H]3O)[C@H](O[C@H]3CC[C@@]4(C)C(=CC[C@H]5[C@@H]6C[C@@H]7O[C@]8(CC[C@@H](C)CO8)[C@@H](C)[C@@H]7[C@@]6(C)CC[C@@H]54)C3)O[C@@H]2CO)O[C@@H]1C | 3.2 µM
C[C@@H]1CC[C@@]2(OC1)O[C@H]1C[C@H]3[C@@H]4CC[C@H]5C[C@@H](O[C@@H]6O[C@H](CO)[C@@H](O[C@H]7O[C@H](C)[C@@H](O)[C@H](O)[C@@H]7O)[C@H](O)[C@H]6O[C@H]6O[C@H](C)[C@@H](O)[C@H](O)[C@@H]6O)[C@H](O)C[C@]5(C)[C@H]4CC[C@]3(C)[C@H]1[C@@H]2C | 13.1 µM
C[C@@H]1CC[C@@]2(OC1)O[C@H]1C[C@H]3[C@@H]4CC=C5C[C@@H](O[C@@H]6O[C@H](CO)[C@@H](O[C@H]7O[C@H](C)[C@@H](OCCNC(=O)COc8ccccc8)[C@H](O)[C@@H]7O)[C@H](O)[C@H]6O[C@H]6O[C@H](C)[C@@H](O)[C@H](O)[C@@H]6O)CC[C@]5(C)[C@H]4CC[C@]3(C)[C@H]1[C@@H]2C | 7.6 µM
C=CCCCCCCCCC(=O)NC[C@H]1O[C@@H](O[C@H]2CC[C@@]3(C)C(=CC[C@H]4[C@@H]5C[C@@H]6O[C@]7(CC[C@@H](C)CO7)[C@@H](C)[C@@H]6[C@@]5(C)CC[C@@H]43)C2)[C@H](O[C@H]2O[C@H](C)[C@@H](O)[C@H](O)[C@@H]2O)[C@@H](O)[C@@H]1O[C@H]1O[C@H](C)[C@@H](O)[C@H](O)[C@@H]1O | > 50 µg/mL
C[C@@H]1CC[C@@]2(OC1)O[C@H]1C[C@H]3[C@@H]4CC=C5C[C@@H](O[C@@H]6O[C@H](CO)[C@@H](O[C@H]7O[C@H](C)[C@@H](OCCNC(=O)/C=C/c8ccccc8)[C@H](O)[C@@H]7O)[C@H](O)[C@H]6O[C@H]6O[C@H](C)[C@@H](O)[C@H](O)[C@@H]6O)CC[C@]5(C)[C@H]4CC[C@]3(C)[C@H]1[C@@H]2C | 1.5 µM
C=CCCCCCCCCC(=O)NCCO[C@H]1[C@H](O)[C@H](O)[C@@H](O[C@H]2[C@H](O)[C@@H](O[C@H]3O[C@H](C)[C@@H](O)[C@H](O)[C@@H]3O)[C@H](O[C@H]3CC[C@@]4(C)C(=CC[C@H]5[C@@H]6C[C@@H]7O[C@]8(CC[C@@H](C)CO8)[C@@H](C)[C@@H]7[C@@]6(C)CC[C@@H]54)C3)O[C@@H]2CO)O[C@@H]1C | 3.8 µM
CCCCCCCCCC(=O)O[C@H]1C[C@@H]2[C@H](CC[C@]3(C)[C@@H]4[C@H](C[C@@H]23)O[C@]2(CC[C@@H](C)CO2)[C@H]4C)[C@@]2(C)C[C@@H](O)[C@H](O[C@@H]3O[C@H](CO)[C@@H](O[C@H]4O[C@H](C)[C@@H](O)[C@H](O)[C@@H]4O)[C@H](O)[C@H]3O[C@H]3O[C@H](C)[C@@H](O)[C@H](O)[C@@H]3O)C[C@H]12 | 6.7 µM
C/C=C/C=C/C(=O)NC[C@H]1O[C@@H](O[C@H]2CC[C@@]3(C)C(=CC[C@H]4[C@@H]5C[C@@H]6O[C@]7(CC[C@@H](C)CO7)[C@@H](C)[C@@H]6[C@@]5(C)CC[C@@H]43)C2)[C@H](O[C@H]2O[C@H](C)[C@@H](O)[C@H](O)[C@@H]2O)[C@@H](O)[C@@H]1O[C@H]1O[C@H](C)[C@@H](O)[C@H](O)[C@@H]1O | 9.3 µM
C[C@@H]1CC[C@@]2(OC1)O[C@H]1C[C@H]3[C@@H]4CC=C5C[C@@H](O[C@@H]6O[C@H](CO)[C@@H](O[C@H]7O[C@H](C)[C@@H](OCCN)[C@H](O)[C@@H]7O)[C@H](O)[C@H]6O[C@H]6O[C@H](C)[C@@H](O)[C@H](O)[C@@H]6O)CC[C@]5(C)[C@H]4CC[C@]3(C)[C@H]1[C@@H]2C | 2.6 µM
C[C@@H]1CC[C@@]2(OC1)O[C@H]1C[C@H]3[C@@H]4CC=C5C[C@@H](O[C@@H]6O[C@H](CNC(=O)COc7ccc(Cl)cc7)[C@@H](O[C@H]7O[C@H](C)[C@@H](O)[C@H](O)[C@@H]7O)[C@H](O)[C@H]6O[C@H]6O[C@H](C)[C@@H](O)[C@H](O)[C@@H]6O)CC[C@]5(C)[C@H]4CC[C@]3(C)[C@H]1[C@@H]2C | 9.4 µM
C[C@@H]1CC[C@@]2(OC1)O[C@H]1C[C@H]3[C@@H]4CC=C5C[C@@H](O[C@@H]6O[C@H](CNC(=O)COc7ccccc7)[C@@H](O[C@H]7O[C@H](C)[C@@H](O)[C@H](O)[C@@H]7O)[C@H](O)[C@H]6O[C@H]6O[C@H](C)[C@@H](O)[C@H](O)[C@@H]6O)CC[C@]5(C)[C@H]4CC[C@]3(C)[C@H]1[C@@H]2C | 9.4 µM
C[C@@H]1CC[C@@]2(OC1)O[C@H]1C[C@H]3[C@@H]4CC=C5C[C@@H](O[C@@H]6O[C@H](CO)[C@@H](O[C@H]7O[C@H](C)[C@@H](OCCNC(=O)C(F)(F)F)[C@H](O)[C@@H]7O)[C@H](O)[C@H]6O[C@H]6O[C@H](C)[C@@H](O)[C@H](O)[C@@H]6O)CC[C@]5(C)[C@H]4CC[C@]3(C)[C@H]1[C@@H]2C | 5.7 µM
C/C=C/C=C/C(=O)NCCO[C@H]1[C@H](O)[C@H](O)[C@@H](O[C@H]2[C@H](O)[C@@H](O[C@H]3O[C@H](C)[C@@H](O)[C@H](O)[C@@H]3O)[C@H](O[C@H]3CC[C@@]4(C)C(=CC[C@H]5[C@@H]6C[C@@H]7O[C@]8(CC[C@@H](C)CO8)[C@@H](C)[C@@H]7[C@@]6(C)CC[C@@H]54)C3)O[C@@H]2CO)O[C@@H]1C | 1.6 µM
COc1ccc(C(=O)NCCO[C@H]2[C@H](O)[C@H](O)[C@@H](O[C@H]3[C@H](O)[C@@H](O[C@H]4O[C@H](C)[C@@H](O)[C@H](O)[C@@H]4O)[C@H](O[C@H]4CC[C@@]5(C)C(=CC[C@H]6[C@@H]7C[C@@H]8O[C@]9(CC[C@@H](C)CO9)[C@@H](C)[C@@H]8[C@@]7(C)CC[C@@H]65)C4)O[C@@H]3CO)O[C@@H]2C)cc1 | 4.5 µM
C[C@@H]1CC[C@@]2(OC1)O[C@H]1C[C@H]3[C@@H]4CC=C5C[C@@H](O[C@@H]6O[C@H](CNC(=O)/C=C/c7ccccc7)[C@@H](O[C@H]7O[C@H](C)[C@@H](O)[C@H](O)[C@@H]7O)[C@H](O)[C@H]6O[C@H]6O[C@H](C)[C@@H](O)[C@H](O)[C@@H]6O)CC[C@]5(C)[C@H]4CC[C@]3(C)[C@H]1[C@@H]2C | 11.8 µM
C[C@@H]1CC[C@@]2(OC1)O[C@H]1C[C@H]3[C@@H]4CC=C5C[C@@H](O[C@@H]6O[C@H](CN=[N+]=[N-])[C@@H](O[C@H]7O[C@H](C)[C@@H](O)[C@H](O)[C@@H]7O)[C@H](O)[C@H]6O[C@H]6O[C@H](C)[C@@H](O)[C@H](O)[C@@H]6O)CC[C@]5(C)[C@H]4CC[C@]3(C)[C@H]1[C@@H]2C | > 50 µg/mL
C[C@@H]1CC[C@@]2(OC1)O[C@H]1C[C@H]3[C@@H]4CC=C5C[C@@H](O[C@@H]6O[C@H](CNC(=O)C(F)(F)F)[C@@H](O[C@H]7O[C@H](C)[C@@H](O)[C@H](O)[C@@H]7O)[C@H](O)[C@H]6O[C@H]6O[C@H](C)[C@@H](O)[C@H](O)[C@@H]6O)CC[C@]5(C)[C@H]4CC[C@]3(C)[C@H]1[C@@H]2C | 18.5 µM
C[C@@H]1CC[C@@]2(OC1)O[C@H]1C[C@H]3[C@@H]4CC=C5C[C@@H](O[C@@H]6O[C@H](CNC(=O)c7ccccc7)[C@@H](O[C@H]7O[C@H](C)[C@@H](O)[C@H](O)[C@@H]7O)[C@H](O)[C@H]6O[C@H]6O[C@H](C)[C@@H](O)[C@H](O)[C@@H]6O)CC[C@]5(C)[C@H]4CC[C@]3(C)[C@H]1[C@@H]2C | 10.7 µM
C[C@@H]1CC[C@@]2(OC1)O[C@H]1C[C@H]3[C@@H]4CC[C@H]5C[C@@H](O[C@@H]6O[C@H](CO)[C@H](O)[C@H](O)[C@H]6O[C@H]6O[C@H](C)[C@@H](O)[C@H](O)[C@@H]6O)[C@H](O)C[C@]5(C)[C@H]4CC[C@]3(C)[C@H]1[C@@H]2C | 7.5 µM
